Legend:
[1] = target: norepinephrine transporter (Homo sapiens, UniProt P23975); settings: cited from earlier work
[2] = tested on: outpatients with moderate to severe unipolar depression; experiment: Prospective GENDEP cohort: association of rs7905446 genotype with antidepressant remission; type: in vivo, human; settings: TT vs TG/GG, logistic regression adjusted for sex, age and center ID, week 12, remission MADRS≤10
Procedure: Statistical analysis. The association between drug response and allelic SNPs identified from pooled-sequencing were performed using logistic regression (PLINK version 1.9).. The association between drug response and […] genotype was performed using logistic regression within Caucasian population. χ^2 tests were used to compare the sex distribution between responder and non-responder. Group differences were analyzed using Student's T-test. […] Replication study II in the Genome-based Therapeutic Drugs for Depression ([…]) study. […] is a multicenter part-randomized open-label pharmacogenetic study of 811 outpatients with moderate to severe unipolar depression diagnosed according to DSM-IV and established in the semi-structured SCAN interview. Patients were aged 19 to 72 years with European ancestry for at least two generations. Patients with personal and family history of schizophrenia or bipolar affective disorder and current dependence on alcohol or drugs were excluded from the study. […] Patients with contraindications for one of the drugs were allocated nonrandomly to the other antidepressant. […] The study was approved by ethics boards of all the participating centers. All participants provided written informed consent.

[3] = tested on: subjects with BD, MDD or SABP diagnosis; experiment: Retrospective cohort: association of rs7905446 genotype with self-reported SSRI response (logistic regression); type: in vivo, human; settings: TT vs TG/GG, TT associated with poor response, logistic regression adjusted for sex and age, Caucasian subjects
Procedure: SNP genotyping. Genotyping of rs7905446 (T/G) was performed using TaqMan SNP genotyping assay on 7900HT Fast Real-Time PCR System (Thermo Fisher Scientific, Waltham, Mass., USA) as previously described. The assay included negative controls and was run with the following condition: 95° C. for 10 min followed by 40 cycles of 92° C. for 15 s and 60° C. for 1 min. The genotyping success rate was >95%. Twenty percent of the samples were genotyped in duplicate, with 100% reproducibility.
Statistical analysis. The association between drug response and allelic SNPs identified from pooled-sequencing were performed using logistic regression (PLINK version 1.9).. The association between drug response and rs7905446 genotype was performed using logistic regression within Caucasian population. χ^2 tests were used to compare the sex distribution between responder and non-responder. Group differences were analyzed using Student's T-test. P value<0.05 were considered statistically significant.
Subjects. All subjects (n=497) were ascertained as part of several cohorts collected for genetic studies of BD. Subjects were identified through VA and UCSD clinics, as well as, advertisement and patient support groups. […]
Assessment of SSRI response. […] Subject's response to SSRI's over their lifetime was assessed based on self-reporting. […]

HTR7 [4] = target: HTR7 (Mus musculus, UniProt P32304); settings: in vivo; cited from earlier work
Chain of HTR7 (Mus musculus, UniProt P32304) (P32304 whole entry): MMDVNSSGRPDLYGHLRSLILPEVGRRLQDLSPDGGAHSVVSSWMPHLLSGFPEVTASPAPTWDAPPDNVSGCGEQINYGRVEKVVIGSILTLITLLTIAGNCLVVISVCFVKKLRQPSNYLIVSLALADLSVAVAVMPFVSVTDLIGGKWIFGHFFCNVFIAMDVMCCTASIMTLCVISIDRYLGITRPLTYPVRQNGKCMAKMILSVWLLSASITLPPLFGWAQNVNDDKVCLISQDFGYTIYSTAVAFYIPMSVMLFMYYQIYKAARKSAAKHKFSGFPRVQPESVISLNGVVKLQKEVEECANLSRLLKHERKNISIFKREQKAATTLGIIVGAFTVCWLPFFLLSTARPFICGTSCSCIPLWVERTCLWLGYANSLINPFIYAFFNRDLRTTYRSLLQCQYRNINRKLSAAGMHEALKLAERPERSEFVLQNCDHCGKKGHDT

HTR7 [5] = target: HTR7 (Homo sapiens, UniProt P34969); settings: cited from earlier work
Chain of HTR7 (Homo sapiens, UniProt P34969) (P34969 whole entry): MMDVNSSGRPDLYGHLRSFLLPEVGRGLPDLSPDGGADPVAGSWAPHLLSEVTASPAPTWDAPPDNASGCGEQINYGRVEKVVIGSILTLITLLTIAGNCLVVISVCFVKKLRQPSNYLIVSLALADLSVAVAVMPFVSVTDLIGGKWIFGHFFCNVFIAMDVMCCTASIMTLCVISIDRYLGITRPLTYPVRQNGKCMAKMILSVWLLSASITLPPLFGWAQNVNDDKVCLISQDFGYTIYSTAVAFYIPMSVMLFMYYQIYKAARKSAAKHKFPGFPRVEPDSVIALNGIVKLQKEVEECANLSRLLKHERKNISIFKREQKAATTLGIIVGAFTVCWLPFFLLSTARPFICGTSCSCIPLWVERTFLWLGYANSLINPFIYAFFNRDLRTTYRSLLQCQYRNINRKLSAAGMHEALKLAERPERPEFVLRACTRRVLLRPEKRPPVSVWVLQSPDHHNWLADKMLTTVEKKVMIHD

HTR7 [6] = settings: chronic treatment; cited from earlier work

Chain of norepinephrine transporter (P23975 whole entry, species assumed): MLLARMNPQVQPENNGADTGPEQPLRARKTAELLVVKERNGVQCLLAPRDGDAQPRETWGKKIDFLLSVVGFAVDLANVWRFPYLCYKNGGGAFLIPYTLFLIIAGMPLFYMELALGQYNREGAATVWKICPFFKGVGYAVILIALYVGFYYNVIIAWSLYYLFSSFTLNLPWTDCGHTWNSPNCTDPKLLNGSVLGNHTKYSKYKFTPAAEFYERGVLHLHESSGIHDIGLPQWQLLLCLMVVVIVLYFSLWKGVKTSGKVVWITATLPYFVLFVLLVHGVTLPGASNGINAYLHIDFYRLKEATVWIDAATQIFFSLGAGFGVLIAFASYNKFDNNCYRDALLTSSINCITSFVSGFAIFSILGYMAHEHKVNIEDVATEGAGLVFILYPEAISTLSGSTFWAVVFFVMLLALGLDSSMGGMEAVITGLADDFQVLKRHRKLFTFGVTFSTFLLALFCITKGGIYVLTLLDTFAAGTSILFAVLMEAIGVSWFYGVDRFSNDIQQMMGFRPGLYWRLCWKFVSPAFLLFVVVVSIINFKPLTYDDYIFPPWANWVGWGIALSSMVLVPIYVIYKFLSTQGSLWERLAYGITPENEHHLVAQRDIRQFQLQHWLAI

SMILES	affinity to HTR7 (HTR7 [5])	further results
CN(C)CCC[C@@]1(c2ccc(F)cc2)OCc2cc(C#N)ccc21 [Escitalopram]		effect on norepinephrine transporter [1]: no direct effect; OR, Rs7905446, remitter vs. non-remitter [2]: 1.669
CNCCC=C1c2ccccc2CCc2ccccc21 [Nortriptyline, Nortyptiline]		OR, Rs7905446, remitter vs. non-remitter [2]: 0.694
Fc1ccc([C@@H]2CCNC[C@H]2COc2ccc3c(c2)OCO3)cc1 [Paroxetine]		OR, Rs7905446, responder vs. non-responder [3]: 5.250
CC1CCN(CC[C@H]2CCCN2S(=O)(=O)c2cccc(O)c2)CC1 [SB-269970]		effects of SSRI and NARI on blockade of HTR7 (HTR7 [4]): potentiate
CCN1CCCC1CNC(=O)c1cc(S(=O)(=O)CC)c(N)cc1OC (stereo not drawn) [amisulpride, Amisulpride]	high affinity	
CN(C)CCC=C1c2ccccc2CCc2ccccc21 [amitriptyline, Amitriptyline]	high affinity	
Clc1ccc2c(c1)C(N1CCNCC1)=Nc1ccccc1O2 [amoxapine, Amoxapine]	high affinity	
CNCCC(Oc1ccc(C(F)(F)F)cc1)c1ccccc1 (stereo not drawn) [fluoxetine, Fluoxetine]		HTR7 expression (HTR7 [6]): downregulates
O=C1[C@@H]2[C@H]3CC[C@H](C3)[C@@H]2C(=O)N1C[C@@H]1CCCC[C@H]1CN1CCN(c2nsc3ccccc23)CC1 [lurasidone, Lurasidone]	high affinity	
O=C1[C@H]2CCCC[C@H]2C(=O)N1CCCCN1CCN(c2nsc3ccccc23)CC1 [perospirone, Perospirone]	high affinity	
Cc1nc2n(c(=O)c1CCN1CCC(c3noc4cc(F)ccc34)CC1)CCCC2 [risperidone, Risperidone]	high affinity	
